Results as given in patent US8889712B2, “IAP antagonists” (Bristol-Myers Squibb Company, priority 2012, dated 2014).
Like-named read-outs stand apart in the source and are kept apart here.

Columns and labels:
XIAP BIR2-3 = biological target: T1, XIAP BIR2-3 (Homo sapiens, UniProt P98170, C202A/C213G); assay: XIAP-BIR2-3 dimeric SMAC Peptide Homogeneous Time Resolved Fluorescence (HTRF) Assay; assay type: binding
T1 construct: His-BIR2-3 (125-356, C202A/C213G, XIAP)
Description: B. […] Assays were performed in black, flat-bottom, 384-well plates. […] Compounds were dissolved at 3 mM in dimethylsulfoxide (DMSO) and evaluated at eleven serially diluted concentrations. IC50 and Ki values were derived by non-linear regression analysis.

XIAP BIR3 = biological target: T2, XIAP BIR3 (Homo sapiens, UniProt P98170); assay: XIAP-BIR3/SMAC Homogeneous Time Resolved Fluorescence (HTRF) Assay; assay type: binding
T2 construct: His-BIR3 (241-356, XIAP)
T2 sequence (P98170 241-356): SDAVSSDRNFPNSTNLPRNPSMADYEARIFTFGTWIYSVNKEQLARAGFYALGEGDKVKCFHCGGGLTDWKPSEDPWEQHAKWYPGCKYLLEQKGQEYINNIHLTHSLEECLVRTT
In short: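 Competition HTRF between XIAP-BIR3 and SMAC; reaction 60 min at room temperature, then anti-6×His-terbium Fab detection for a further 30 min.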

[1] = 0.5 nM N-His-BIR2-3 (125-356, C202A/C213G, XIAP), 20 nM fluorescein labeled dimeric SMAC peptide, HTRF signal, read-out: XIAP BIR2-3 IC50
[2] = 1 nM N-His-BIR3 (241-356, XIAP), 5 nM fluorescein labeled SMAC peptide, HTRF signal, read-out: XIAP BIR3 IC50

T1 sequence (P98170 125-356 C202A/C213G): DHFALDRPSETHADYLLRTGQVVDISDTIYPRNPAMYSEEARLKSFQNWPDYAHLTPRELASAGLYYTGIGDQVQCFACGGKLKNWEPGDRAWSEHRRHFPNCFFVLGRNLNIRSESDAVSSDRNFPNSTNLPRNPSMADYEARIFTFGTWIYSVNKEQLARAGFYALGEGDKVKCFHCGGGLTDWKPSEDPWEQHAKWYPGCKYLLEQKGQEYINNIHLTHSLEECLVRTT

IC50 (XIAP BIR2-3; [1])	IC50 (XIAP BIR3; [2])	Structure (SMILES)	IC50 (XIAP BIR2-3)	IC50 (XIAP BIR3)
2.3 nM	7.6 nM	CN[C@@H](C)C(=O)N[C@H](C(=O)N1C[C@@H](c2ccc3c(c2)CN(C(=O)[C@@H](NC(=O)[C@H](C)NC)C(C)(C)C)[C@H](C(=O)N[C@@H]2CCCc4ccccc42)C3)C[C@H]1C(=O)N[C@@H](Cc1ccccc1)C(=O)Nc1cccc(-c2cnco2)c1)C(C)(C)C [Example 58, (S)-2-((S)-3,3-Dimethyl-2-((S)-2-(methylamino)propanamido)butanoyl)-7-((3R,5S)-1-((S)-3,3-dimethyl-2-((S)-2-(methylamino)propanamido)butanoyl)-5-(((S)-1-((3-(oxazol-5-yl)phenyl)amino)-1-oxo-3-phenylpropan-2-yl)carbamoyl)pyrrolidin-3-yl)-N-((R)-1,2,3,4-tetrahydronaphthalen-1-yl)-1,2,3,4-tetrahydroisoquinoline-3-carboxamide]		
2.2 nM	6.7 nM	CN[C@@H](C)C(=O)N[C@H](C(=O)N1C[C@@H](c2ccc3c(c2)CN(C(=O)[C@@H](NC(=O)[C@H](C)NC)C(C)(C)C)[C@H](C(=O)N[C@@H]2CCCc4ccccc42)C3)C[C@H]1C(=O)N[C@@H](Cc1ccccc1)C(=O)Nc1cccc(C#N)c1)C(C)(C)C [Example 59, (S)-7-((3R,5S)-5-(((S)-1-((3-Cyanophenyl)amino)-1-oxo-3-phenylpropan-2-yl)carbamoyl)-1-((S)-3,3-dimethyl-2-((S)-2-(methylamino)propanamido)butanoyl)pyrrolidin-3-yl)-2-((S)-3,3-dimethyl-2-((S)-2-(methylamino)propanamido)butanoyl)-N-((R)-1,2,3,4-tetrahydronaphthalen-1-yl)-1,2,3,4-tetrahydroisoquinoline-3-carboxamide]		
3.4 nM	22.1 nM	CN[C@@H](C)C(=O)N[C@H](C(=O)N1C[C@@H](c2ccc3c(c2)CN(C(=O)[C@@H](NC(=O)[C@H](C)NC)C(C)(C)C)[C@H](C(=O)N[C@@H]2CCCc4ccccc42)C3)C[C@H]1C(=O)N[C@@H](Cc1ccccc1)C(=O)NCCOC)C(C)(C)C [Example 61, (S)-2-((S)-3,3-Dimethyl-2-((S)-2-(methylamino)propanamido)butanoyl)-7-((3R,5S)-1-((S)-3,3-dimethyl-2-((S)-2-(methylamino)propanamido)butanoyl)-5-(((S)-1-((2-methoxyethyl)amino)-1-oxo-3-phenylpropan-2-yl)carbamoyl)pyrrolidin-3-yl)-N-((R)-1,2,3,4-tetrahydronaphthalen-1-yl)-1,2,3,4-tetrahydroisoquinoline-3-carboxamide]		
		CCN(CC)C(=O)[C@H](Cc1ccccc1)NC(=O)[C@@H]1C[C@H](c2ccc3c(c2)CN(C(=O)[C@@H](NC(=O)[C@H](C)NC)C(C)(C)C)[C@H](C(=O)N[C@@H]2CCCc4ccccc42)C3)CN1C(=O)[C@@H](NC(=O)[C@H](C)NC)C(C)(C)C [Example 62, (S)-7-((3R,5S)-5-(((S)-1-(Diethylamino)-1-oxo-3-phenylpropan-2-yl)carbamoyl)-1-((S)-3,3-dimethyl-2-((S)-2-(methylamino)propanamido)butanoyl)pyrrolidin-3-yl)-2-((S)-3,3-dimethyl-2-((S)-2-(methylamino)propanamido)butanoyl)-N-((R)-1,2,3,4-tetrahydronaphthalen-1-yl)-1,2,3,4-tetrahydroisoquinoline-3-carboxamide]	1.9 nM	9.2 nM
3 nM	16.7 nM	CN[C@@H](C)C(=O)N[C@H](C(=O)N1C[C@@H](c2ccc3c(c2)CN(C(=O)[C@@H](NC(=O)[C@H](C)NC)C(C)(C)C)[C@H](C(=O)N[C@@H]2CCCc4ccccc42)C3)C[C@H]1C(=O)N[C@@H](Cc1ccccc1)C(=O)N(C1CC1)C1CC1)C(C)(C)C [Example 63, (S)-7-((3R,5S)-5-(((S)-1-(Dicyclopropylamino)-1-oxo-3-phenylpropan-2-yl)carbamoyl)-1-((S)-3,3-dimethyl-2-((S)-2-(methylamino)propanamido)butanoyl)pyrrolidin-3-yl)-2-((S)-3,3-dimethyl-2-((S)-2-(methylamino)propanamido)butanoyl)-N-((R)-1,2,3,4-tetrahydronaphthalen-1-yl)-1,2,3,4-tetrahydroisoquinoline-3-carboxamide]		
3.8 nM	25.6 nM	CN[C@@H](C)C(=O)N[C@H](C(=O)N1C[C@@H](c2ccc3c(c2)CN(C(=O)[C@@H](NC(=O)[C@H](C)NC)C(C)(C)C)[C@H](C(=O)N[C@@H]2CCCc4ccccc42)C3)C[C@H]1C(=O)N[C@@H](Cc1ccccc1)C(=O)NC1CC1)C(C)(C)C [Example 64, (S)-7-((3R,5S)-5-(((S)-1-(Cyclopropylamino)-1-oxo-3-phenylpropan-2-yl)carbamoyl)-1-((S)-3,3-dimethyl-2-((S)-2-(methylamino)propanamido)butanoyl)pyrrolidin-3-yl)-2-((S)-3,3-dimethyl-2-((S)-2-(methylamino)propanamido)butanoyl)-N-((R)-1,2,3,4-tetrahydronaphthalen-1-yl)-1,2,3,4-tetrahydroisoquinoline-3-carboxamide]		
1.6 nM	5.4 nM	CN[C@@H](C)C(=O)N[C@H](C(=O)N1C[C@@H](c2ccc3c(c2)CN(C(=O)[C@@H](NC(=O)[C@H](C)NC)C(C)(C)C)[C@H](C(=O)N[C@@H]2CCCc4ccccc42)C3)C[C@H]1C(=O)N[C@@H](Cc1ccccc1)C(=O)Nc1ccc(-n2cncn2)cc1)C(C)(C)C [Example 65, (S)-7-((3R,5S)-5-(((S)-1-((4-(1H-1,2,4-Triazol-1-yl)phenyl)amino)-1-oxo-3-phenylpropan-2-yl)carbamoyl)-1-((S)-3,3-dimethyl-2-((S)-2-(methylamino)propanamido)butanoyl)pyrrolidin-3-yl)-2-((S)-3,3-dimethyl-2-((S)-2-(methylamino)propanamido)butanoyl)-N-((R)-1,2,3,4-tetrahydronaphthalen-1-yl)-1,2,3,4-tetrahydroisoquinoline-3-carboxamide]		
		CN[C@@H](C)C(=O)N[C@H](C(=O)N1C[C@@H](c2ccc3c(c2)CN(C(=O)[C@@H](NC(=O)[C@H](C)NC)C(C)(C)C)[C@H](C(=O)N[C@@H]2CCCc4ccccc42)C3)C[C@H]1C(=O)N[C@@H](Cc1ccccc1)C(=O)NCCc1ccccc1)C(C)(C)C [Example 66, (S)-2-((S)-3,3-Dimethyl-2-((S)-2-(methylamino)propanamido)butanoyl)-7-((3R,5S)-1-((S)-3,3-dimethyl-2-((S)-2-(methylamino)propanamido)butanoyl)-5-(((S)-1-oxo-1-(phenethylamino)-3-phenylpropan-2-yl)carbamoyl)pyrrolidin-3-yl)-N-((R)-1,2,3,4-tetrahydronaphthalen-1-yl)-1,2,3,4-tetrahydroisoquinoline-3-carboxamide]	3.1 nM	13.3 nM
2.1 nM	9.3 nM	CN[C@@H](C)C(=O)N[C@H](C(=O)N1C[C@@H](c2ccc3c(c2)CN(C(=O)[C@@H](NC(=O)[C@H](C)NC)C(C)(C)C)[C@H](C(=O)N[C@@H]2CCCc4ccccc42)C3)C[C@H]1C(=O)N[C@@H](Cc1ccccc1)C(=O)NCc1nccs1)C(C)(C)C [Example 67, (S)-2-((S)-3,3-Dimethyl-2-((S)-2-(methylamino)propanamido)butanoyl)-7-((3R,5S)-1-((S)-3,3-dimethyl-2-((S)-2-(methylamino)propanamido)butanoyl)-5-(((S)-1-oxo-3-phenyl-1-((thiazol-2-ylmethyl)amino)propan-2-yl)carbamoyl)pyrrolidin-3-yl)-N-((R)-1,2,3,4-tetrahydronaphthalen-1-yl)-1,2,3,4-tetrahydroisoquinoline-3-carboxamide]		
		CN[C@@H](C)C(=O)N[C@H](C(=O)N1C[C@@H](c2ccc3c(c2)CN(C(=O)[C@@H](NC(=O)[C@H](C)NC)C(C)(C)C)[C@H](C(=O)N[C@@H]2CCCc4ccccc42)C3)C[C@H]1C(=O)N[C@@H](Cc1ccccc1)C(=O)Nc1ccccc1)C(C)(C)C [Example 68, (S)-2-((S)-3,3-Dimethyl-2-((S)-2-(methylamino)propanamido)butanoyl)-7-((3R,5S)-1-((S)-3,3-dimethyl-2-((S)-2-(methylamino)propanamido)butanoyl)-5-(((S)-1-oxo-3-phenyl-1-(phenylamino)propan-2-yl)carbamoyl)pyrrolidin-3-yl)-N-((R)-1,2,3,4-tetrahydronaphthalen-1-yl)-1,2,3,4-tetrahydroisoquinoline-3-carboxamide]	1.3 nM	4.9 nM
1.5 nM	8.6 nM	CN[C@@H](C)C(=O)N[C@H](C(=O)N1C[C@@H](c2ccc3c(c2)CN(C(=O)[C@@H](NC(=O)[C@H](C)NC)C(C)(C)C)[C@H](C(=O)N[C@@H]2CCCc4ccccc42)C3)C[C@H]1C(=O)N[C@@H](Cc1ccccc1)C(=O)NCCC(C)C)C(C)(C)C [Example 69, (S)-2-((S)-3,3-Dimethyl-2-((S)-2-(methylamino)propanamido)butanoyl)-7-((3R,5S)-1-((S)-3,3-dimethyl-2-((S)-2-(methylamino)propanamido)butanoyl)-5-(((S)-1-(isopentylamino)-1-oxo-3-phenylpropan-2-yl)carbamoyl)pyrrolidin-3-yl)-N-((R)-1,2,3,4-tetrahydronaphthalen-1-yl)-1,2,3,4-tetrahydroisoquinoline-3-carboxamide]		
